Here are results for two molecules from publication PMC5983823, “Screening of Natural Product Derivatives Identifies Two Structurally Related Flavonoids as Potent Quorum Sensing Inhibitors against Gram-Negative Bacteria” (International Journal of Molecular Sciences, 2018).

In data set [1] the test system is Staphylococcus aureus biofilms. More on the design: method as in PMID 24071942. Particulars: cited from earlier work.
The subject of data set [2] is human lung (HL) epithelial cells. The data set is described as follows: Cytotoxicity testing (CellTiter Glo). The class given is cell-based. Particulars: 24 h exposure. The method, then:
(§1) Human lung (HL) epithelial cells were grown in RPMI 1640 (Biowhittaker, Lonza, Viewers, Bornem, Belgium) supplemented with 10% inactivated fetal bovine serum (FBS), 2 mM L-glutamine and gentamycin 20 µg/mL, and mouse monocyte macrophage RAW 264.7 cells in DMEM medium supplemented with 10% FBS and 20 µg/mL gentamycin. Cells (3 × 10^5 cells/mL) were seeded into 96-microtiter well plates (Cellstar TC, Greiner Bio-One GmbH, Frickenhausen, Germany), 200 µL per well, and incubated at 37 °C in 5% CO2 24 h before exposure to the compounds. After the incubation, culture medium was discarded, the wells were washed with PBS, and the compound dilutions prepared in culture media were added as triplicates to a final volume of 200 µL. Usnic acid (200 µM, Sigma Aldrich, St. Louis, MO, USA) was included as positive control and DMSO (1%) as solvent control. Plates were incubated for additional 24 h. At the end of 24 h, media was removed, wells were washed twice with PBS and 100 µL of PBS was added. CellTiter Glo® reagent (Promega, Madison, WI, USA) was prepared according to manufacturer’s instructions, and 100 µL was added to the wells. The plates were shaken for two minutes and equilibrated at room temperature for 10 min prior to measuring the luminescence using Varioskan LUX multimode plate reader (Thermo Scientific, Vantaa, Finland). Inhibition of cell viability was calculated in relation to the untreated cells.
Background: Cellular ATP, detected with luciferase, serves as a proxy for viable cell number.

Data set [3] deals with mouse monocyte macrophage (RAW 264.7) cells. The data set is described as follows: Cytotoxicity testing (CellTiter Glo). It is filed as cell-based. The settings on record: 24 h exposure. The method, then:
as §1

The subject of another data set is P. aeruginosa PAO1. The data set is described as follows: Swimming motility assay. It is filed as cell-based. Particulars: Pseudomonas aeruginosa, highest test concentration (400 µM). The method, then: Assays were performed according to the protocols previously described in [30, 74] with some modifications. The swarming agar was prepared in MQ-water consisting of 0.3% (w/v) agar, 1% (w/v) peptone, 0.5% (w/v) yeast extract and 0.5% (w/v) sodium chloride, and the swimming agar similarly but without yeast extract. Compounds at a final concentration of 400 µM and 100 µM were pre-mixed with 5 mL of agar, and poured over solidified LB agar plates (10 mL/petri dish) as overlays. The plates were allowed to dry at 30 °C for three hours followed by point inoculation with 2 µL of P. aeruginosa PAO1 (~10^8 CFU/mL) and incubation at 37 °C for 18 h. Quercetin was used as a control. Diameters of the swarming and swimming zones were measured after the incubation periods.

The subject of data set [4] is P. aeruginosa (ATCC 9027, ATCC 15422 and PA01). The data set is described as follows: Viable plate counts (bacterial growth). The class given is cell-based, Pseudomonas aeruginosa. Particulars: 100 and 400 µM, 24 h. On the procedure:
Effects of the leads on bacterial growth were assessed by performing viable plate counts. Compounds at final concentrations of 100 and 400 µM and cultures of P. aeruginosa (ATCC 9027, ATCC 15422 and PA01) and E. coli K-12 (10^6 CFU/mL) were simultaneously added to the 96-microtiter well plates (200 µL per well). Untreated bacteria were included in control wells. The plates were incubated at 37 °C, without shaking for 24 h. At the end of this period, bacterial suspensions were transferred from the wells to Eppendorf tubes, and the tubes were sonicated for 10 min (25 °C, 35 kHz, Sonorex Digitec water bath (Bandelin, Zurich, Switzerland)). Each suspension was serially diluted in LB and plated on LB agar. The number of viable bacteria in each test concentration was counted after overnight incubation at 37 °C. Results were expressed as CFU/mL.

The subject of data set [5] is RhlI/RhlR controlled rhamnolipid biosynthesis in P. aeruginosa. On the set-up: method as in ref 73 = [73]; 73. Manner S. Fallarero A. Abo Akademi University and University of Helsinki, Finland Evaluation of the Effects of the Leads in Rhamnolipid Biosynthesis Personal communication 2017. Particulars: personal communication ref 73; cited from earlier work.
The test system of another data set is C. violaceum ATCC 31532. In words: Violacein extraction assay (QS-mediated violacein production). The class given is cell-based. The settings on record: Chromobacterium violaceum, ATCC31532, 40 µM, C. violaceum ATCC 31532, mean ± SD of three independent tests; read-out: Inhibition-% of violacein production.
The test system of data set [6] is P. aeruginosa and E. coli biofilms. The data set is described as follows: Transmitted light microscopy of biofilms. It is filed as cell-based, Pseudomonas aeruginosa, Escherichia coli. Particulars: 100 µM, all the tested strains, crystal violet, 40×. On the procedure:
For imaging, bacteria were allowed to adhere and form microcolonies on coverslips. Briefly, 5 mL of diluted cultures (10^6 CFU/mL) of P. aeruginosa and E. coli was added to 6-well plates containing glass coverslips (22 mm × 22 mm). The plates were incubated at 37 °C without shaking for 2 h. Thereafter, bacterial suspensions were removed, and the wells were washed once with PBS. Fresh LB with and without the lead compounds at a final concentration of 100 µM was added to the wells, and the plates were incubated at 37 °C for 22 h. At the end of 24 h, coverslips were rinsed three times with MQ-water and air dried followed by staining with 0.23% (v/v) crystal violet solution. Coverslips were allowed to dry and visualized under a Transmitted Light Microscope (EVOS® XL Imaging System, InvitrogenTM, Thermo Fisher Scientific, San Jose, CA, USA) at a magnification of 40×.

Some results are limits rather than exact numbers.

Broadly, the inhibition is the relative decrease from the control value, in per cent. As to `CCC(=O)Oc1c(-c2ccccc2Cl)oc2ccccc2c1=O` [Compound 2117, 2-(2-chlorophenyl)-4-oxochromen-3-yl propanoate], in data set [1], the “Anti-biofilm activity against S. aureus” value was “inactives”. In addition, the “Inhibition-% of cell viability” value was “N.I” in data set [2] (10 µM); “N.I” in data set [2] (40 µM); 11.2 ± 4.9% in data set [2] (100 µM); “N.I” in data set [3] (10 µM); “N.I” in data set [3] (40 µM). The same molecule yielded an inhibition at 400 µM in the data set with P. aeruginosa PAO1 of 28.1%. Besides, in data set [4], the “Bactericidal activity by viable plate counts” value is given as “Neither of the leads displayed any bactericidal activity”. Moreover, in data set [5], the “Effect on rhamnolipid biosynthesis” value is on record as “did not affect”. Further, the inhibition at 40 µM in the data set on C. violaceum ATCC 31532 was above 90%. The “Effect on biofilm structure and formation” value in data set [6] was “alteration of biofilm structure and reduced biofilm formation”.

For `CCCCCCCCCC(=O)Oc1c(-c2ccc(OC)cc2)oc2ccccc2c1=O` [Compound 2896, 2-(4-methoxyphenyl)-4-oxochromen-3-yl decanoate], the “Anti-biofilm activity against S. aureus” value in data set [1] is “inactives”. The “Inhibition-% of cell viability” value in data set [2] (10 µM) was “N.I”; in data set [2] (40 µM) it was “N.I”; in data set [2] (100 µM) it was “did not display any effects on the cell viability and N.I”; in data set [3] (10 µM), “N.I”; in data set [3] (40 µM), “N.I”; in data set [3] (100 µM), “did not display any effects on the cell viability and N.I”. For the same molecule, the inhibition at 400 µM in the data set on P. aeruginosa PAO1 was 33.9%. In data set [4], the “Bactericidal activity by viable plate counts” value is given as “Neither of the leads displayed any bactericidal activity”. In addition, the “Effect on rhamnolipid biosynthesis” value in data set [5] is “did not affect”. The inhibition at 40 µM with C. violaceum ATCC 31532 came to 83.5 ± 1.4%. Also, the “Effect on biofilm structure and formation” value in data set [6] is “alteration of biofilm structure and reduced biofilm formation”.
